Measurements as given in ChEMBL document CHEMBL1201862, “PubChem BioAssay data set” (2004).
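1) Cells in 96-well plates. 2) Compound, 48 h, 5 concentrations. 3) Linear interpolation between surrounding doses. 4) Unreached endpoint = highest concentration. Here, GI50 denotes the concentration required for 50% inhibition of growth.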 Active and inactive are the calls of the source. Rule as the data show it: active = GI50 up to about 1.1 µM and inactive = higher.

Key:
Test in all cases: NCI-60 cell line screen, 48 h
[1] = test system: CCRF-CEM
[2] = test system: OVCAR-4
[3] = test system: SF-295
[4] = test system: OVCAR-3
[5] = test system: KM12
[6] = test system: A498
[7] = test system: Hs-578T
[8] = test system: DU-145
[9] = test system: EKVX
[10] = test system: ACHN
[11] = test system: SF-539
[12] = test system: COLO 205
[13] = test system: HOP-62
[14] = test system: IGROV-1
[15] = test system: MDA-MB-231
[16] = test system: BT-549
[17] = test system: SK-MEL-5
[18] = test system: NCI-H23
[19] = test system: M14
[20] = test system: OVCAR-5

Measured: GI50

CNC(=O)OC(C)CN1c2ccccc2Sc2ccccc21 (stereo unspecified)
inactive: [1] > 100 µM | [2] 74.5 µM | [3] 45.1 µM | [4] > 100 µM | [5] > 100 µM | [6] > 100 µM | [7] > 100 µM | [8] > 100 µM | [9] 51.4 µM | [10] 83.8 µM | [11] 64.3 µM | [12] 41.2 µM | [13] > 100 µM | [14] 59.3 µM | [15] > 100 µM | [16] > 100 µM | [17] 59.8 µM | [18] > 100 µM | [19] 64.9 µM | [20] > 100 µM

CCOC(=O)c1ccc(/N=C/C=C(\Nc2ccc(C(=O)OCC)cc2)c2ccc3ccccc3c2)cc1
inactive: [1] 17.9 µM | [2] 26.4 µM | [3] 28.2 µM | [4] 23.1 µM | [5] 17.2 µM | [6] 95.9 µM | [7] 31.1 µM | [8] 37.3 µM | [10] 30.5 µM | [11] 20.2 µM | [12] 16.2 µM | [13] 30.8 µM | [14] 36.2 µM | [15] 25.1 µM | [16] 17 µM | [17] 18.3 µM | [18] 21 µM | [19] 23.7 µM | [20] 48.4 µM

COc1cc(/C=N\N(C)C)cc(/C=N/N(C)C)c1O
inactive: [1] 17.3 µM | [2] 49.2 µM | [3] 2.9 µM | [4] 17.3 µM | [5] > 100 µM | [6] 45.6 µM | [7] 3.53 µM | [8] 68.7 µM | [10] 21.3 µM | [11] 6.03 µM | [12] 17.1 µM | [13] 39.3 µM | [15] 25.8 µM | [16] 13.4 µM | [17] 26.2 µM | [18] > 100 µM | [19] 18.3 µM

COC(=O)/C=C/[C@@H]1[C@H](C)N1S(=O)(=O)c1ccc(C)cc1 (stereo partly specified)
inactive: [1] > 100 µM | [2] > 100 µM | [3] > 100 µM | [4] > 100 µM | [6] > 100 µM | [7] > 100 µM | [8] > 100 µM | [9] > 100 µM | [10] > 100 µM | [11] > 100 µM | [12] > 100 µM | [13] > 100 µM | [14] > 100 µM | [15] 78.7 µM | [16] > 100 µM | [17] > 100 µM | [18] > 100 µM | [19] > 100 µM | [20] > 100 µM

CCOC(=O)CC(=O)Nc1c(C(=O)OCC)sc2nc(SC)nc(Nc3ccc(OC)c(OC)c3)c12
inactive: [1] > 100 µM | [2] 66.2 µM | [3] 7.59 µM | [4] 10.7 µM | [5] 80.5 µM | [6] 28.9 µM | [7] 7.73 µM | [8] 39.7 µM | [9] > 100 µM | [10] 19.8 µM | [11] 9.86 µM | [12] > 100 µM | [14] 28.7 µM | [15] 18.5 µM | [16] 27.5 µM | [17] > 100 µM | [18] 19.1 µM | [19] > 100 µM | [20] 52.6 µM

CN(C)c1ccc2oc(=O)c3ccccc3c2c1
inactive: [1] > 100 µM | [2] > 100 µM | [3] 28.8 µM | [4] > 100 µM | [6] 34.8 µM | [7] 31.7 µM | [8] > 100 µM | [9] 20.4 µM | [10] 24.3 µM | [11] 33.1 µM | [12] > 100 µM | [13] 21 µM | [14] 51.4 µM | [15] 17.1 µM | [16] 34.4 µM | [17] 86.5 µM | [18] 22.9 µM | [19] > 100 µM | [20] > 100 µM

O=[N+]([O-])c1ccc(/C=N/CC2CCCN3CCCCC23)cc1 (stereo unspecified)
inactive: [1] 40.8 µM | [2] > 100 µM | [3] > 100 µM | [5] 33.2 µM | [6] > 100 µM | [7] > 100 µM | [8] > 100 µM | [9] > 100 µM | [10] > 100 µM | [12] 50.9 µM | [13] > 100 µM | [14] > 100 µM | [15] > 100 µM | [16] > 100 µM | [17] > 100 µM | [18] > 100 µM | [19] 55 µM | [20] > 100 µM

O=c1[nH][nH]c(=O)n1CCCCCCn1c(=O)[nH][nH]c1=O
inactive: [1] > 100 µM | [2] > 100 µM | [4] > 100 µM | [5] > 100 µM | [6] > 100 µM | [7] > 100 µM | [8] > 100 µM | [9] > 100 µM | [11] > 100 µM | [12] > 100 µM | [15] > 100 µM | [16] > 100 µM | [17] > 100 µM | [18] > 100 µM | [19] > 100 µM | [20] > 100 µM

CC(=O)N(C(=O)CC(=O)NNCc1ccccc1Cl)c1ccc(Cl)cc1
inactive: [1] > 10 µM | [2] > 10 µM | [3] > 10 µM | [4] > 10 µM | [5] > 10 µM | [6] > 10 µM | [7] > 10 µM | [8] > 10 µM | [9] 4.99 µM | [10] > 10 µM | [11] > 10 µM | [12] > 10 µM | [13] > 10 µM | [14] > 10 µM | [15] > 10 µM | [16] > 10 µM | [17] > 10 µM | [18] > 10 µM | [19] > 10 µM | [20] > 10 µM

O=C(C[n+]1ccccc1)N/N=C(\Cc1nc2ccc([N+](=O)[O-])cc2nc1O)C(=O)Nc1cc(Cl)c(Cl)cc1Cl
inactive: [1] > 100 µM | [2] 79.4 µM | [3] > 100 µM | [4] 76 µM | [5] 60.3 µM | [6] > 100 µM | [7] > 100 µM | [8] > 100 µM | [9] > 100 µM | [10] > 100 µM | [11] > 100 µM | [12] 76.2 µM | [14] > 100 µM | [15] 41.9 µM | [16] > 100 µM | [17] 95.1 µM | [18] > 100 µM | [19] > 100 µM | [20] > 100 µM

OC(COC(c1ccccc1)(c1ccccc1)c1ccccc1)C(O)CC1SCCS1 (stereo unspecified)
inactive: [1] 21.3 µM | [4] 22.2 µM | [5] 13 µM | [6] 13.9 µM | [7] 12.2 µM | [8] 17.9 µM | [9] 11.2 µM | [10] 18.6 µM | [11] 18.7 µM | [12] 14.7 µM | [13] 12 µM | [14] 10.2 µM | [15] 16.2 µM | [16] 20 µM | [17] 16.7 µM | [18] 17.9 µM | [19] 29.6 µM | [20] 19.2 µM

COc1cc(C2SCC(=O)N2c2ccc(-n3c(-c4ccccc4)nc4ccccc4c3=O)cc2)cc(OC)c1OC (stereo unspecified)
inactive: [1] 69.7 µM | [2] > 100 µM | [3] > 100 µM | [4] > 100 µM | [5] 97.3 µM | [6] > 100 µM | [7] 20.1 µM | [8] > 100 µM | [9] > 100 µM | [10] > 100 µM | [11] > 100 µM | [12] > 100 µM | [13] > 100 µM | [14] > 100 µM | [15] > 100 µM | [16] > 100 µM | [17] 68.9 µM | [18] > 100 µM | [20] > 100 µM

O=c1c2c3c(sc2nc2n1N=CN(c1ccccc1)C2)CCCC3
inactive: [1] > 100 µM | [2] > 100 µM | [3] > 100 µM | [4] > 100 µM | [5] > 100 µM | [6] > 100 µM | [7] > 100 µM | [8] > 100 µM | [9] > 100 µM | [10] > 100 µM | [12] > 100 µM | [13] > 100 µM | [14] > 100 µM | [15] > 100 µM | [16] > 100 µM | [17] > 100 µM | [18] > 100 µM | [19] > 100 µM | [20] > 100 µM

Cc1cn([C@@H]2C[C@H](CO)[C@@H]2O)c(=O)[nH]c1=O
inactive: [1] > 100 µM | [2] > 100 µM | [3] > 100 µM | [4] > 100 µM | [5] > 100 µM | [6] > 100 µM | [7] > 100 µM | [8] > 100 µM | [9] > 100 µM | [10] > 100 µM | [11] > 100 µM | [12] > 100 µM | [13] > 100 µM | [14] > 100 µM | [15] > 100 µM | [16] > 100 µM | [17] > 100 µM | [18] > 100 µM | [20] > 100 µM
